The test deals with human PCSK9. Briefly: Cell Free PCSK9 Assay (PCSK9-luciferase mRNA translation in HeLa lysate). The format is biochemical. The settings on record: PCSK9-luciferase RNA, 30° C. for 45 minutes, top concentration 100 μM. On the procedure: As defined herein inhibition of translation of PCSK9 mRNA to PCSK9 protein is determined by the “Cell Free PCSK9 Assay” provided herein in the specification. This “Cell Free PCSK9 Assay” is specific to the production of PCSK9 protein from PCSK9 mRNA and therefore detects inhibitors of this translational process rather than other mechanisms by which PCSK9 protein may be reduced.
In order to eliminate the permeability barrier inherent to the WT7 cell-based assays a cell-free system was also established to assess compound activitiy. A sequence containing the full length human PCSK9 (NCBI reference identifier, NM_174936.3, where coding sequence start annotated at position 363) along with 84 additional 3′ nucleotides, comprising a V5 tag and polylinker followed by an in frame modified firefly luciferase reporter (corresponding to nucleotide positions 283-1929 of pGL3, GenBank reference identifier JN542721.1) was cloned into the pT7CFE1 expression vector (ThermoScientific). The construct was then in-vitro transcribed using the MEGAscript T7 Kit (Life Technologies) and RNA subsequently purified incorporating the MEGAclear Kit (Life Technologies) according to manufacturer's protocols. HeLa cell lysates were prepared following the protocols described by Mikami (reference is Cell-Free Protein Synthesis Systems with Extracts from Cultured Human Cells, S. Mikami, T. Kobayashi and H. Imataka; from Methods in Molecular Biology, vol. 607, pages 43-52, Y. Endo et al. (eds.), Humana Press, 2010) with the following modifications. Cells were grown in a 20 L volume of CD293 medium (Gibco 11765-054) with Glutamax increased to 4 mM, penicillin at 100 U/mL and other additions as previously described by Mikami. Growth was in a 50 L wavebag at a rocker speed of 25 rpm and angle 6.1 with 5% CO2 and 0.2 LPM flow rate with cells harvested at a density of 2-2.5e6/mL. Lysates additionally contained 1 tablet of Roche cOmplete-EDTA protease inhibitors per 50 mL with tris(2-carboxyethyl)phosphine (Biovectra) substituted for dithiothreitol, and were clarified by an additional final centrifugation at 10,000 rpm in a Sorvall SS34 rotor at 4° C. for 10 minutes. Compound screening was performed in 384-well plates in an eleven point, 0.5 log dilution format at a top test compound concentration of 100 μM in a final volume of 0.5% DMSO. In additional to these test compound conditions each screening plate also included wells that contained 100 μM of compound example 16 (as depicted in WO2014170786; N-(3-chloropyridin-2-yl)-N-[(3R)-piperidin-3-yl]-4-(3H-[1,2,3]triazolo[4,5-b]pyridin-3-yl)benzamide) as a positive assay control defined as high percent effect, HPE, as well as wells containing media in 0.5% DMSO as a negative treatment control defined as zero percent effect, ZPE. Compounds were incubated at 30° C. for 45 minutes in a solution containing 0.1 μg of purified, in-vitro transcribed RNA together with the cell-free reaction mixture (consisting of 1.6 mM Mg and 112 mM K salts, 4.6 mM tris(2-carboxyethyl)phosphine (Biovectra), 5.0 μL HeLa lysate, 0.2 μL RNAsin (Promega) and 1.0 μL energy mix (containing 1.25 mM ATP (Sigma), 0.12 mM GTP (Sigma), 20 mM creatine phosphate (Santa Cruz), 60 μg/mL creatine phosphokinase (Sigma), 90 μg/mL tRNA (Sigma) and the 20 amino acids (Life Technologies) at final concentrations described by Mikami) and brought up in water to a final volume of 10 μL in water. Upon assay completion 1 μL from each reaction solution was removed and transferred to a second 384-well Optiplate (Perkin Elmer) containing 24 μL of SteadyGlo (Promega) and signal intensity was measured on the Envision (Perkin Elmer) using the enhanced luminescence protocol. To determine compound IC50 the data for HPE and ZPE control wells were first analyzed and the mean, standard deviation and Z prime calculated for each plate. The test compound data were converted into percent effect, using the ZPE and HPE controls as 0% and 100% activity, respectively, applying Equation 1 above. […]
What is called IC50 is the concentration that inhibits the measured activity by half. Turning to `Cn1ncc(-c2ccc(C(=O)N(c3ncccc3Cl)[C@@H]3CCCNC3)cc2F)c1-c1nn[nH]n1` [Example 3, N-(3-chloropyridin-2-yl)-3-fluoro-4-[1-methyl-5-(2H-tetrazol-5-yl)-1H-pyrazol-4-yl]-N-[(3R)-piperidin-3-yl]benzamide], the half-maximal inhibitory concentration (IC50) amounted to 2.8 µM.

In turn, `CCOC(=O)O[C@@H](C)n1nnnc1-c1c(-c2ccc(C(=O)N(c3ncccc3C)[C@@H]3CCCNC3)cc2)cnn1C` [Example 5a, ethyl (S)-1-{5-[1-methyl-4-(4-{(3-methylpyridin-2-yl)[(3R)-piperidin-3-yl]carbamoyl}phenyl)-1H-pyrazol-5-yl]-1H-tetrazol-1-yl}ethyl carbonate] returned an IC50 of 8.2 µM.

The compound `CCOC(=O)O[C@H](C)n1nnnc1-c1c(-c2ccc(C(=O)N(c3ncccc3C)[C@@H]3CCCNC3)cc2)cnn1C` [Example 5b, ethyl (R)-1-{5-[1-methyl-4-(4-{(3-methylpyridin-2-yl)[(3R)-piperidin-3-yl]carbamoyl}phenyl)-1H-pyrazol-5-yl]-1H-tetrazol-1-yl}ethyl carbonate] registered an IC50 of 6.4 µM.

The compound `CCOC(=O)O[C@@H](C)n1nnnc1-c1c(-c2ccc(C(=O)N(c3ncccc3Cl)[C@@H]3CCCNC3)cc2)cnn1C` [Example 6, ethyl (S)-1-{5-[1-methyl-4-(4-{(3-chloropyridin-2-yl)[(3R)-piperidin-3-yl]carbamoyl}phenyl)-1H-pyrazol-5-yl]-1H-tetrazol-1-yl}ethyl carbonate] came in with an IC50 of 10.3 µM.

Take `CCOC(=O)O[C@@H](C)n1nnnc1-c1c(-c2ccc(C(=O)N(c3ncccc3Cl)[C@@H]3CCCNC3)cc2F)cnn1C` [Example 7, ethyl (S)-1-{5-[4-(4-{(3-chloropyridin-2-yl)[(3R)-piperidin-3-yl]carbamoyl}-2-fluorophenyl)-1-methyl-1H-pyrazol-5-yl]-1H-tetrazol-1-yl}ethyl carbonate]: the IC50 was determined as 13.4 µM.

For the compound `CCOC(=O)O[C@@H](C)n1nnnc1-c1c(-c2ccc(C(=O)N(c3ncccc3C)[C@@H]3CCCNC3)cc2F)cnn1C` [Example 8, ethyl (S)-1-{5-[4-(4-{(3-methylpyridin-2-yl)[(3R)-piperidin-3-yl]carbamoyl}-2-fluorophenyl)-1-methyl-1H-pyrazol-5-yl]-1H-tetrazol-1-yl}ethyl carbonate], 11 µM corresponded to half-maximal inhibition (IC50).

Regarding `CCOC(=O)O[C@@H](C)n1nnnc1-c1c(-c2ccc(C(=O)N(c3ncccc3C)[C@@H]3CCCNC3)nc2)cnn1C` [Example 9, ethyl (S)-1-{5-[1-methyl-4-(6-{(3-methylpyridin-2-yl)[(3R)-piperidin-3-yl]carbamoyl}pyridin-3-yl)-1H-pyrazol-5-yl]-1H-tetrazol-1-yl}ethyl carbonate], it took 58.9 µM to reach half-maximal inhibition (IC50).

Regarding `CCOC(=O)O[C@@H](C)n1nnnc1-c1c(-c2ccc(C(=O)N(c3ncccc3Cl)[C@@H]3CCCNC3)nc2)cnn1C` [Example 10, ethyl (S)-1-{5-[4-(6-{(3-chloropyridin-2-yl)[(3R)-piperidin-3-yl]carbamoyl}pyridin-3-yl)-1-methyl-1H-pyrazol-5-yl]-1H-tetrazol-1-yl}ethyl carbonate], the IC50 was greater than 74 µM.

(Values after patent US20160102074A1, “SUBSTITUTED AMIDE COMPOUNDS” (PFIZER INC., priority 2014, published 2016).)
